Marks after values point to notes of the source that are not given here.

On the set-up of experiment [1]: method as in PMID 31683151. Particulars: compound 5 mM, MGO 5 mM; cited from earlier work.
In experiment [2] the test system is BSA/fructose + glucose fluorescent AGEs. As to the kind of experiment: Inhibition of AGE formation, initial stage of glycation (BSA/fructose + glucose). In kind it is biochemical, bovine. Particulars: BSA/fructose + glucose model, 7 days, 37 °C. The method, then: The formation of AGEs was measured after incubation of a system containing protein and carbohydrates. This assay was based on previous methods. The reaction system was obtained by adding 300 µL of plant extract or of the pure compound (at different concentrations), 150 µL D-fructose (200 mM), 150 µL of D-glucose (200 mM), and 300 µL of bovine serum albumin (BSA, 3 mg/mL) to a test tube. All these solutions, except plant extract, were dissolved in 0.05 M potassium phosphate buffer (pH 7.4) containing NaCl (100 mM) and NaN3 (0.02% w/v). The plant extract was prepared in a buffer containing 60% ethanol. The mixture was incubated in the dark at 37 °C for 7 days with constant stirring. After the incubation, 200 µL of the reaction mixture was transferred to a 96-well black plate, and fluorescent AGEs were measured using a microplate reader (Infinite® 200 PRO, TECAN, Männedorf, Switzerland) at λex = 360 and λem = 440 nm. […]. Aminoguanidine (AMG), a known AGE formation inhibitor, was used as a standard. The reaction mixture without inhibitors was used as a positive control. Color interference from the sample was eliminated by a sample control (buffer and sample). The fluorescence readings for the experimental treatment were blanked against extract blanks to eliminate the baseline fluorescence of the sample. The percentage of the AGE inhibition and IC50 was calculated as described in Section 3.3.1.

In another experiment the test system is BSA/MGO fluorescent AGEs. The experiment in a line: Inhibition of AGE formation, intermediate stage of glycation (BSA/MGO). In kind it is biochemical, bovine. Particulars: BSA/MGO model. The method, then: (§1) The BSA-MGO assay was based on those described before, with some modifications. This experiment is based on the formation of fluorescent AGEs from the middle stage of protein glycation. MGO (1.5 mM) and BSA (3 mg/mL) were dissolved separately in 0.05 M phosphate buffer (pH 7.4) containing NaCl (100 mM) and NaN3 (0.02% w/v). Then, 300 μL of MGO was incubated with samples at different concentrations (dissolved in a buffer containing 60% ethanol) for an hour at 37 °C, in the dark, with constant stirring. After BSA (3 mg/mL) was added to the reaction mixture and incubation time was extended to 48 h at 37 °C in darkness. The rest of the procedure was the same as that for the BSA-glucose/fructose model that is described above. The percentage of the AGE inhibition and IC50 was calculated as described in Section 3.3.1.

The test system of experiment [3] is amyloid fibrils of glycated BSA (BSA/MGO). The experiment in a line: Inhibition of amyloid fibril formation, ThT assay (BSA/MGO). The experiment is classed as biochemical, bovine. Particulars: highest obtained, PESE 200, PIC 200, AMG 100 µg/mL. The method, then: as §1
The fibrillar state of modified BSA was determined with ThT as previously described. ThT is a probe that binds directly to amyloid fibrils to give a strong fluorescent signal and thus can be used to quantify β-amyloid due to protein glycation. Basically, 30 μL of glycated protein (approx. 1 mg/mL), obtained as described previously, was mixed with 100 μL ThT reagent (10 μM ThT in 100 mM phosphate buffer, pH 7.0), and fluorescence was collected at excitation/emission wavelengths of 450/490 nm in a microplate reader (Infinite® 200 PRO, TECAN, Männedorf, Switzerland). […]

A short description of experiment [4]: MGO capture using derivatization with OPD (HPLC). The settings on record: PESE 2 mg/mL, PIC 2 mM, AMG 2 mM; MGO 2 mM; 37 °C, 1 h. The method, then: MGO scavenging was tested using a described procedure, with slight modifications. The quantification of MGO was based on derivatization with OPD, leading to the formation of the product 2-methylquinoxyline (2-MQ). MGO and OPD were dissolved in phosphate buffer (50 mM, pH 7.4) to a concentration of 2 mM and 4 mM, respectively. […] The reaction system was composed of 125 μL of the MGO solution, 125 μL of phosphate buffer (negative control), or PESE incubated at 37 °C for 1 h. After 250 μL of the OPD solution was added, the tubes were kept for 30 min for the derivatization reaction between MGO and OPD to complete. Then, the chromatographic analysis was performed. All solutions were previously filtered (microfilter pore diameter 0.45 μm). […] The linear gradient for elution was: starting at 5% of solvent B, 0–3 min, 5 to 50% B; 3–16 min, isocratic in 50% B; 16–17 min, 50–90% B; 17–19 min, isocratic in 90% B and 19–19.5 min, 90–5% B. The derivatization product, 2-methylquinoxyline (2-MQ), was detected at 315 nm, with a retention time of 10 min. The percentage of trapping efficiency of MGO was calculated using the following equation: % trapping MGO = [100 − (peak area after adding sample/peak area without adding sample) × 100].

Experiment [5] can be described thus: DPPH radical scavenging assay. The method, then: After incubation in the dark for 30 min, the absorbance was read at 516 nm, using a UV–Vis spectrophotometer (Agilent Technologies, Santa Clara, CA, USA). Results were expressed as the half-maximal inhibitory concentration (IC50) in μg/mL.
Experiment [6] can be described thus: Superoxide anion radical scavenging activity. The method, then: The potential of the samples to scavenger superoxide anion radicals was determined, with minor modifications. […] Phosphate buffer (19 mM, pH 7.4) was used to dissolve NADH, NBT, and PMS. QCT was used as means of comparison. The experiment was conducted at 37 °C in a microplate reader (Infinite® 200 PRO, TECAN, Männedorf, Switzerland), and the absorbance was measured at 560 nm. The results were expressed as IC50 of extract solution in μg/mL.

Procedure for HOCl scavenging activity: Briefly, a freshly prepared HOCl solution, by adjusting the pH of a 1% solution of NaOCl to 6.2 with dropwise addition of diluted H2SO4, was diluted to 30 µM, using 100 mM phosphate buffer pH 7.4. […] QCT was used as means of comparison. Fluorescence assays were performed in a microplate reader (Infinite® 200 PRO, TECAN, Männedorf, Switzerland), at 37 °C, at wavelengths of 505 ± 10 nm and 530 ± 10 nm, for excitation and emission, respectively. The results were expressed as IC50 (μg/mL) of extract solution.

As for `O=c1cc(-c2ccc(O)c(O)c2)oc2cc(O)cc(O)c12` [luteolin], in experiment [1], the MGO capture percentage is listed as 40.7%.
Regarding `N=C(N)NN` [AMG, Aminoguanidine], the “Antiglycation IC50, Fructose + Glucose” value in experiment [2] was 25.5 ± 5.0 ^c μg/mL. For the same compound, in the experiment with BSA/MGO fluorescent AGEs, the “Antiglycation IC50, MGO” value is recorded as 50.4 ± 1.8 ^c μg/mL. Further, in experiment [3], the “Inhibition of Amyloid Fibrils (%), MGO” value is 30.3 ± 4.4 ^c %. This compound yielded an MGO trapping in experiment [4] of 99.6%.
On to `O=c1cc(-c2ccc(O)cc2)oc2cc(O)cc(O)c12` [apigenin], for which the MGO capture percentage in experiment [1] was 36.5%.
As usually defined, the IC50 is the concentration at which inhibition is half-maximal. Take `O=c1c(O)c(-c2ccc(O)c(O)c2)oc2cc(O)cc(O)c12` [QCT, quercetin]: the “DPPH• IC50” value in experiment [5] (30 min) was determined as 4.8 ± 1.0 µg/mL. In addition, the IC50 in experiment [5] (data in parenthesis are in μM) is 15.9 µM; in experiment [6] (data in parenthesis are in μM, read-out: O2•− IC50 (in parenthesis) (converted)), 29.2 µM. The “HOCl IC50” value in the experiment “HOCl scavenging activity” turned out to be 1.9 ± 0.3 µg/mL. In addition, in experiment [6], the “O2•− IC50” value was 8.8 ± 0.3 µg/mL. In experiment [1], the MGO capture percentage is 21.4%.
As for `CC1OC(OCC2OC(Oc3c(-c4ccc(O)cc4)oc4cc(OC5OC(C)C(O)C(O)C5O)cc(O)c4c3=O)C(O)C(O)C2O)C(O)C(O)C1O` (stereo not drawn) [robinin], the MGO capture percentage in experiment [1] is given as 54.4%.
For `C[C@@H]1O[C@@H](OC[C@H]2O[C@@H](Oc3c(-c4ccc(O)c(O)c4)oc4cc(O)cc(O)c4c3=O)[C@H](O)[C@@H](O)[C@@H]2O)[C@H](O)[C@H](O)[C@H]1O` [rutin], the MGO capture percentage in experiment [1] is recorded as 49.3%.
As to `O=c1c(O)c(-c2ccc(O)cc2)oc2cc(O)cc(O)c12` [kaempferol], in experiment [1], the MGO capture percentage is on record as 58.9%.
On to procyanidins, for which the MGO capture percentage in experiment [1] is reported as 46.3%.
Consider `COc1cc(-c2cc(=O)c3c(O)cc(O)cc3o2)ccc1O` [chrysoeriol], for which the MGO capture percentage in experiment [1] is listed as 41.8%.
Regarding `O=c1c(-c2ccc(O)cc2)coc2cc(O)cc(O)c12` [genistein], the MGO capture percentage in experiment [1] is reported as 43.4%.

The values above are taken from paper PMC9267955, “Antidiabetic, Antiglycation, and Antioxidant Activities of Ethanolic Seed Extract of Passiflora edulis and Piceatannol In Vitro” (Molecules, 2022).
